Measured values published in patent publication US11807627B2, “Morphic forms of complement factor D inhibitors” (priority 2018, dated 2023).

Tests used:
[1] = Dose number and BCS classification; assay type: physicochemical
[2] = Solid state stress testing (temperature, humidity, storage, photostability); assay type: physicochemical
Caco2 = Caco2 permeability and efflux ratio; assay type: in vitro ADME; conditions: A-B
[3] = Caco2 permeability and efflux ratio; assay type: in vitro ADME; conditions: human, Caco-2; Caco2; read-out: Efflux ratio (B-A/A-B)
[4] = Polymorph study: crash cooling; assay type: physicochemical
Experimental: Saturated solutions of Compound 3 produced from temperature cycling experiments were placed into a fridge to crash cool to 4° C. After about 4 days, observations were made and solids produced were isolated using centrifuge filtration and analyzed by XRPD. Where no solids were recovered, solutions were placed into a freezer (−20° C.) for 14 days. Any solids produced were isolated by centrifuge filtration and analyzed by XRPD (Table 19).

[5] = Solution stress testing (acid, base, oxidative degradation); assay type: physicochemical
[6] = Polymorph study: anti-solvent addition; assay type: physicochemical
Experimental: Anti-solvent additions were completed on saturated solutions of Compound 3 produced from temperature cycling experiments. Precipitation of solids was observed (before anti-solvent additions were completed) from selected solvent systems when storage under ambient conditions. Precipitated solids were analyzed by XRPD and re-dissolved using gentle heating and addition of minimal solvent. An appropriate anti-solvent was added to each saturated solution in 50μL aliquots until precipitation was observed or a total of 1 mL anti-solvent had been added. Samples where solids were precipitated were isolated using centrifuge filtration and analyzed by XRPD. […] Samples where solids had precipitated were isolated using centrifuge filtration and analyzed by XRPD (Table 20A and Table 20B).

[7] = X-ray powder diffraction (XRPD); assay type: physicochemical; conditions: Table 27A
Experimental: Most XRPD patterns were collected with a PANalytical X′Pert PRO MPD diffractometer using an incident beam of Cu Kα radiation produced using a long, fine-focus source and a nickel filter. The diffractometer was configured using the symmetric Bragg-Brentano geometry. Prior to the analysis, a silicon specimen (NIST SRM 640e) was analyzed to verify the observed position of the Si 111 peak is consistent with the NIST-certified position. A specimen of the sample was prepared as a thin, circular layer centered on a silicon zero-background substrate. Antiscatter slits (SS) were used to minimize the background generated by air. Soller slits for the incident and diffracted beams were used to minimize broadening from axial divergence. Diffraction patterns were collected using a scanning position-sensitive detector (X′Celerator) located 240 mm from the sample and Data Collector software v. 2.2b.
A few XRPD patterns were collected with a PANalytical X′Pert PRO MPD diffractometer using an incident beam of Cu radiation produced using an Optix long, fine-focus source. […] Prior to the analysis, a silicon specimen (NIST SRM 640e) was analyzed to verify the observed position of the Si 111 peak is consistent with the NIST-certified position. A specimen of the sample was sandwiched between 3-μm-thick films and analyzed in transmission geometry. […]

[8] = Compression study (25 kN, 50 kN; Example 13); assay type: physicochemical
Experimental: A mixture of Form A ±Form B and Form B were compressed using a specac IR die press. A total of approximately 100 mg (50 mg A ±50 mg B and 100 mg B) were weighed into separate 2 mL glass vials. The solids were then placed into the IR dies and pressed under 25 kN and 50 kN for about 10-15 seconds. After pressing to 25 kN, material was removed from the dies and ground slightly. A sub-sample was taken and XRPD analysis was collected. Material was then placed back into the dies and pressed to 50 kN. After pressing to 50 kN, material was removed from the dies and ground slightly before collecting XRPD analysis. Both samples observed a small color change from white to off-white after being pressed to 25 kN. […] No single form was observed when compressing a mixture of Forms A and form B material, but a decrease in crystallinity was observed when exerting 50 kN on the mixture.

[9] = 70% 2-Propanol / 30% Heptane (% v/v)
[10] = 70% 2-Propanol / 30% Water (% v/v) aw = 0.8
[11] = 95% 2-Propanol / 5% Heptane (% v/v)
[12] = 95% Heptane / 5% 2-Propanol (% v/v)
[13] = 95% Methanol / 5% Water (% v/v) calc. aw = 0.2
[14] = 50% 2-Propanol / 50% Heptane (% v/v)

CC(=O)c1nn(CC(=O)N2[C@H](C(=O)Nc3nc(Br)ccc3C)C[C@@]3(C)C[C@@H]23)c2ccc(-c3cnc(C)nc3)cc12 [Compound 3, (1R,3S,5R)-2-(2-(3-acetyl-5-(2-methylpyrimidin-5-yl)-1H-indazol-1-yl)acetyl)-N-(6-bromo-3-methylpyridin-2-yl)-5-methyl-2-azabicyclo[3.1.0]hexane-3-carboxamide]
BCS class [1]: BCS II compound | Dose Number ([1]; for 100 mg dose): Dose Number for 100 mg dos 3-7 | Solid State Stress Testing: Room Temperature storage [2]: No degradation | Solid State Stress Testing: Humidity ([2]; 40° C./75% RH): No degradation | Solid State Stress Testing: Elevated temperature ([2]; 105° C. - 24 hr): No degradation | Solid State Stress Testing: Photostability ([2]; exposure to UV visible): No light senstitivity | Caco2: A-B (Caco2): Caco2: A-B ~17 × 10^−6 cm/s | efflux ratio [3]: 2.2 | Crystallization technique: Cooling ([4]; 1-Butanol): Form A | Crystallization technique: Cooling ([4]; 2-Methyl Tetrahydrofuran): Clear solution | Crystallization technique: Cooling ([4]; 2-Propanol): Form A | Crystallization technique: Cooling ([4]; 40% Ethanol / 60% Water (% v/v) calc. aw = 0.7): Amorphous | Crystallization technique: Cooling ([4]; 50% 2-Propanol / 50% Heptane (% v/v), WC = weakly crystalline): Form A (WC) | Crystallization technique: Cooling ([4]; 50% Acetonitrile / 50% Water (% v/v) calc. aw = 0.9): Clear solution | Crystallization technique: Cooling ([4]; 50% Ethanol / 50% Heptane (% v/v)): Form A | Crystallization technique: Cooling [4, 9]: Clear solution | Crystallization technique: Cooling [4, 10]: Clear solution | Crystallization technique: Cooling [4, 11]: Form A | Crystallization technique: Cooling [4, 12]: Clear solution | Crystallization technique: Cooling [4, 13]: Clear solution | Crystallization technique: Cooling ([4]; Acetone): Form A | Crystallization technique: Cooling ([4]; Acetonitrile): Clear solution | Crystallization technique: Cooling ([4]; Ethanol): Amorphous | Crystallization technique: Cooling ([4]; Ethyl Acetate (dry)): Amorphous | Crystallization technique: Cooling ([4]; Methanol): Clear solution | Crystallization technique: Cooling ([4]; Methylethyl Ketone): Clear solution | Crystallization technique: Cooling ([4]; Methylisobutyl Ketone): Clear solution | Crystallization technique: Cooling ([4]; Tetrahydrofuran): Clear solution | Crystallization technique: Cooling ([4]; Toluene): Amorphous | Crystallization technique: Cooling ([4]; n-Heptane): Clear solution | Crystallization technique: Cooling ([4]; tert-Butylmethyl Ether): Clear solution | Solution stress testing: Acid degradation ([5]; 0.1N HCl): Degradation observed | Solution stress testing: Base degradation ([5]; 0.1N NaOH): Degradation observed | Solution stress testing: Oxidative degradation ([5]; H2O2): Not susceptible to oxidation | Crystallization technique: Anti-solvent Additions ([6]; 1-Butanol, *solids that precipitated under ambient conditions, WC = weakly crystalline): Form A (WC) * | XRPD analysis after re- dissolution and storage at 4° C. for ca. 48 hours ([6]; 1-Butanol, WC = weakly crystalline): WC Form A | XRPD analysis after re- dissolution and storage at 4° C. for ca. 48 hours ([6]; 2-Propanol): Form A | Crystallization technique: Anti-solvent Additions ([6]; 2-Propanol, *solids that precipitated under ambient conditions): Form A* | Crystallization technique: Anti-solvent Additions ([6]; 40% Ethanol / 60% Water (% v/v) calc. aw = 0.7, *solids that precipitated under ambient conditions): Mixture L + M* | Observation after re-dissolution and anti-solvent addition [6, 14]: Clear solution | Observations after storage in the fridge for ca. 48 hours [6, 14]: Clear solution | Crystallization technique: Anti-solvent Additions ([6]; 50% 2-Propanol / 50% Heptane (% v/v), *solids that precipitated under ambient conditions, WC = weakly crystalline): Form A (WC) * | Crystallization technique: Anti-solvent Additions ([6]; 50% Ethanol / 50% Heptane (% v/v), *solids that precipitated under ambient conditions): Form A* | XRPD analysis after re- dissolution and storage at 4° C. for ca. 48 hours ([6]; 50% Ethanol:50% Heptane (% v/v)): Form A | Observation after re-dissolution and anti-solvent addition [6, 9]: Clear solution | Observations after storage in the fridge for ca. 48 hours [6, 9]: Clear solution | Observations after storage in the fridge for ca. 48 hours ([6]; 70% 2-Propanol / 30% Heptane (% v/v) re-prepared sample): Clear solution | Crystallization technique: Anti-solvent Additions ([6]; 70% 2-Propanol / 30% Heptane (% v/v), *solids that precipitated under ambient conditions): Mixture L + M* | Crystallization technique: Anti-solvent Additions [6, 10]: Clear solution | Observations after storage in the fridge for ca. 48 hours [6, 10]: Clear solution | XRPD analysis after re- dissolution and storage at 4° C. for ca. 48 hours [6, 11]: Form A | Crystallization technique: Anti-solvent Additions ([6]; 95% 2-Propanol / 5% Heptane (% v/v), *solids that precipitated under ambient conditions): Form A* | Observations after storage in the fridge for ca. 48 hours [6, 12]: Clear solution | Crystallization technique: Anti-solvent Additions [6, 13]: Clear solution | Observations after storage in the fridge for ca. 48 hours ([6]; 95% Methanol:5% Water (% v/v) calc. aw = 0.2): Clear solution | XRPD analysis after re- dissolution and storage at 4° C. for ca. 48 hours ([6]; Acetone): Form A | Crystallization technique: Anti-solvent Additions ([6]; Acetone, *solids that precipitated under ambient conditions): Form A* | Observations after storage in the fridge for ca. 48 hours ([6]; Acetonitrile): Clear solution | XRPD analysis after re- dissolution and storage at 4° C. for ca. 48 hours ([6]; Ethanol): Form A | Crystallization technique: Anti-solvent Additions ([6]; Ethanol, *solids that precipitated under ambient conditions): Form A* | Observations after storage in the fridge for ca. 48 hours ([6]; Ethyl Acetate (dry)): White solid | XRPD analysis after re- dissolution and storage at 4° C. for ca. 48 hours ([6]; Ethyl Acetate (dry)): Amorphous | Crystallization technique: Anti-solvent Additions ([6]; Ethyl Acetate (dry), *solids that precipitated under ambient conditions): Form A* | Crystallization technique: Anti-solvent Additions ([6]; Methanol): Clear solution | Observations after storage in the fridge for ca. 48 hours ([6]; Methanol): Clear solution | Crystallization technique: Anti-solvent Additions ([6]; Methylethyl Ketone): Form A | Crystallization technique: Anti-solvent Additions ([6]; Methylisobutyl Ketone): Form B | Crystallization technique: Anti-solvent Additions ([6]; Tetrahydrofuran): Form A | Crystallization technique: Anti-solvent Additions ([6]; Toluene): Amorphous | Crystallization technique: Anti-solvent Additions ([6]; n-Heptane): Clear solution

CC(=O)c1nn(CC(=O)N2[C@H](C(=O)Nc3nc(Br)ccc3C)C[C@@]3(C)C[C@@H]23)c2ccc(-c3cnc(C)nc3)cc12 [Form B]
XRPD [7]: Form B | Form change under compression (XRPD) ([8]; 25 kN and 50 kN): did not change under pressure | XRPD Results ([8]; Pressure Exerted 25 kN): Form B | XRPD Results ([8]; Pressure Exerted 50 kN): Form B
